Measurements taken from ChEMBL document CHEMBL1201862, “PubChem BioAssay data set” (2004).
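Compound exposure: 48 hours, 5 concentrations, 96-well plates. At the GI50, growth is halved.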 Calls of active or inactive are those of the source. Rule as the data show it: active = GI50 up to about 1.1 µM and inactive = higher.

Key:
Assay in all cases: growth of human tumour cells (NCI), 48 h
T47D = system: T47D
SNB-75 = system: SNB-75
HOP-92 = system: HOP-92
BT-549 = system: BT-549
CAKI-1 = system: CAKI-1
UACC-62 = system: UACC-62
SK-OV-3 = system: SK-OV-3
K562 = system: K562
NCI-H23 = system: NCI-H23
COLO 205 = system: COLO 205
M14 = system: M14
SK-MEL-2 = system: SK-MEL-2
A498 = system: A498
KM12 = system: KM12
DU-145 = system: DU-145
MOLT-4 = system: MOLT-4
Malme-3M = system: Malme-3M
SF-295 = system: SF-295
NCI-H226 = system: NCI-H226
SF-539 = system: SF-539

Measured: GI50

CC(CC(C#N)(c1ccccc1)c1ccccc1)N1CCCCC1 (stereo not drawn)
inactive: T47D 49.7 µM | SNB-75 29.7 µM | HOP-92 31.9 µM | BT-549 29.5 µM | CAKI-1 39 µM | UACC-62 21.3 µM | SK-OV-3 65.6 µM | K562 19.3 µM | NCI-H23 37.8 µM | COLO 205 16.2 µM | M14 19 µM | SK-MEL-2 21.2 µM | A498 21.6 µM | KM12 18.1 µM | DU-145 59.8 µM | MOLT-4 22.4 µM | Malme-3M 17.3 µM | SF-295 20 µM | NCI-H226 20.7 µM

Cc1cc2c(cc1Cl)SC(NNc1ccc([N+](=O)[O-])cc1)=NS2(=O)=O
inactive: T47D > 10 µM | SNB-75 > 10 µM | BT-549 > 10 µM | CAKI-1 > 10 µM | UACC-62 > 10 µM | SK-OV-3 > 10 µM | K562 > 10 µM | NCI-H23 > 10 µM | COLO 205 > 10 µM | M14 > 10 µM | SK-MEL-2 > 10 µM | A498 > 10 µM | KM12 > 10 µM | DU-145 > 10 µM | MOLT-4 > 10 µM | SF-539 > 10 µM | Malme-3M > 10 µM | SF-295 > 10 µM | NCI-H226 > 10 µM

C#CCCOC(=O)CC1=C(C)/C(=C/c2ccc([S+](C)[O-])cc2)c2ccc(F)cc21 (stereo not drawn)
inactive: T47D 20.1 µM | SNB-75 16.3 µM | HOP-92 12.6 µM | BT-549 13.8 µM | CAKI-1 6.19 µM | UACC-62 13.6 µM | SK-OV-3 37 µM | K562 13.2 µM | NCI-H23 22.2 µM | COLO 205 15.2 µM | M14 16.2 µM | SK-MEL-2 15.7 µM | A498 10.6 µM | KM12 10.8 µM | DU-145 17.2 µM | MOLT-4 17.5 µM | SF-539 16.2 µM | SF-295 13.9 µM | NCI-H226 19 µM

O=C1C=C/C(=N/c2ccccc2)c2ccccc21
inactive: T47D 16.2 µM | SNB-75 6.53 µM | HOP-92 14.9 µM | BT-549 14.7 µM | CAKI-1 14.8 µM | UACC-62 3.52 µM | SK-OV-3 20.4 µM | K562 12.5 µM | NCI-H23 2.62 µM | COLO 205 7.03 µM | M14 6.21 µM | SK-MEL-2 2.19 µM | A498 21.2 µM | KM12 11.4 µM | DU-145 1.68 µM | MOLT-4 5.41 µM | SF-539 15.1 µM | SF-295 7.4 µM | NCI-H226 11.4 µM

COc1cc(C(CN)N(C)C)cc(OC)c1OC (stereo not drawn)
inactive: T47D > 100 µM | HOP-92 > 100 µM | BT-549 > 100 µM | CAKI-1 > 100 µM | UACC-62 > 100 µM | SK-OV-3 > 100 µM | K562 > 100 µM | NCI-H23 > 100 µM | COLO 205 77.8 µM | M14 > 100 µM | A498 > 100 µM | KM12 > 100 µM | DU-145 > 100 µM | MOLT-4 > 100 µM | SF-539 > 100 µM | Malme-3M > 100 µM | SF-295 > 100 µM | NCI-H226 29.6 µM

Nc1nc2c(c(=O)[nH]1)C(c1ccccc1)CC(=O)N2 (stereo not drawn)
inactive: T47D > 100 µM | SNB-75 > 100 µM | BT-549 > 100 µM | UACC-62 > 100 µM | SK-OV-3 > 100 µM | K562 > 100 µM | NCI-H23 > 100 µM | COLO 205 > 100 µM | M14 > 100 µM | SK-MEL-2 > 100 µM | A498 > 100 µM | KM12 > 100 µM | DU-145 > 100 µM | MOLT-4 > 100 µM | SF-539 > 100 µM | Malme-3M > 100 µM | SF-295 > 100 µM | NCI-H226 > 100 µM

CC1(CCCO)CCCCCCCCCC(C)(CCCO)C1=O (stereo not drawn)
inactive: T47D > 100 µM | SNB-75 > 100 µM | HOP-92 > 100 µM | BT-549 > 100 µM | CAKI-1 > 100 µM | UACC-62 > 100 µM | SK-OV-3 > 100 µM | K562 > 100 µM | NCI-H23 > 100 µM | COLO 205 > 100 µM | M14 > 100 µM | SK-MEL-2 97.5 µM | A498 > 100 µM | KM12 > 100 µM | DU-145 > 100 µM | MOLT-4 > 100 µM | Malme-3M > 100 µM | SF-295 > 100 µM | NCI-H226 > 100 µM

Clc1cc2nnn(C3CCCO3)c2cc1Cl (stereo not drawn)
inactive: T47D > 100 µM | SNB-75 20 µM | BT-549 49.7 µM | CAKI-1 > 100 µM | UACC-62 > 100 µM | SK-OV-3 > 100 µM | K562 > 100 µM | NCI-H23 60.1 µM | COLO 205 > 100 µM | M14 > 100 µM | SK-MEL-2 > 100 µM | A498 98.4 µM | DU-145 > 100 µM | MOLT-4 83.6 µM | SF-539 > 100 µM | Malme-3M > 100 µM | SF-295 > 100 µM | NCI-H226 > 100 µM

Cc1ccc(CC2(OCCN(C)C)CCC(C(C)(C)C)CC2)cc1 (stereo not drawn)
inactive: T47D 2.68 µM | SNB-75 6.71 µM | BT-549 6.22 µM | CAKI-1 4.21 µM | UACC-62 3.31 µM | SK-OV-3 11.2 µM | K562 1.87 µM | NCI-H23 11.4 µM | COLO 205 1.48 µM | M14 1.87 µM | SK-MEL-2 2.11 µM | A498 11.4 µM | KM12 2.86 µM | DU-145 5.47 µM | MOLT-4 2.04 µM | SF-539 3.26 µM | Malme-3M 1.99 µM | SF-295 4.54 µM | NCI-H226 5.28 µM

O=c1c(C(c2ccc(-c3ccccc3)cc2)c2c(O)oc3ccccc3c2=O)c(O)oc2ccccc12
inactive: T47D 40 µM | SNB-75 24.5 µM | HOP-92 19.1 µM | BT-549 19.2 µM | CAKI-1 19.9 µM | UACC-62 19.3 µM | K562 45.5 µM | NCI-H23 24.8 µM | COLO 205 34.6 µM | SK-MEL-2 22.5 µM | A498 31 µM | KM12 19.6 µM | DU-145 59.8 µM | MOLT-4 33.5 µM | Malme-3M 24.7 µM | NCI-H226 23.2 µM

O=c1c(C(c2cc(OCc3ccccc3)cc(OCc3ccccc3)c2)c2c(O)oc3ccccc3c2=O)c(O)oc2ccccc12
inactive: T47D 8.55 µM | SNB-75 3.37 µM | HOP-92 2.69 µM | BT-549 5.01 µM | CAKI-1 7.26 µM | UACC-62 4.02 µM | SK-OV-3 6.58 µM | K562 3.35 µM | NCI-H23 4.42 µM | COLO 205 8.45 µM | M14 7.13 µM | SK-MEL-2 3.86 µM | A498 12 µM | KM12 4.19 µM | DU-145 6.35 µM | MOLT-4 3.91 µM | SF-539 5.86 µM | SF-295 5.42 µM | NCI-H226 9.64 µM
